Data from patent US20210300940A1 (Merck Patent GmbH, priority 2018, published 2021).

Experiments:
TLR7 = biological target: T1, TLR7 (Homo sapiens, UniProt Q9NYK1); test: HEK/293 TLR7 Cell Assay; assay type: cell-based; settings: TLR7/NFKb HEK cells, R848 agonist 10 uM final concentration, Steady-Glo readout; read-out: TLR7 potency
T1 construct: expressed in transfected cells; host or cells: HEK/293 cells carrying TLR7 and an NF-kB luciferase reporter
T1 sequence (Q9NYK1 27-1049): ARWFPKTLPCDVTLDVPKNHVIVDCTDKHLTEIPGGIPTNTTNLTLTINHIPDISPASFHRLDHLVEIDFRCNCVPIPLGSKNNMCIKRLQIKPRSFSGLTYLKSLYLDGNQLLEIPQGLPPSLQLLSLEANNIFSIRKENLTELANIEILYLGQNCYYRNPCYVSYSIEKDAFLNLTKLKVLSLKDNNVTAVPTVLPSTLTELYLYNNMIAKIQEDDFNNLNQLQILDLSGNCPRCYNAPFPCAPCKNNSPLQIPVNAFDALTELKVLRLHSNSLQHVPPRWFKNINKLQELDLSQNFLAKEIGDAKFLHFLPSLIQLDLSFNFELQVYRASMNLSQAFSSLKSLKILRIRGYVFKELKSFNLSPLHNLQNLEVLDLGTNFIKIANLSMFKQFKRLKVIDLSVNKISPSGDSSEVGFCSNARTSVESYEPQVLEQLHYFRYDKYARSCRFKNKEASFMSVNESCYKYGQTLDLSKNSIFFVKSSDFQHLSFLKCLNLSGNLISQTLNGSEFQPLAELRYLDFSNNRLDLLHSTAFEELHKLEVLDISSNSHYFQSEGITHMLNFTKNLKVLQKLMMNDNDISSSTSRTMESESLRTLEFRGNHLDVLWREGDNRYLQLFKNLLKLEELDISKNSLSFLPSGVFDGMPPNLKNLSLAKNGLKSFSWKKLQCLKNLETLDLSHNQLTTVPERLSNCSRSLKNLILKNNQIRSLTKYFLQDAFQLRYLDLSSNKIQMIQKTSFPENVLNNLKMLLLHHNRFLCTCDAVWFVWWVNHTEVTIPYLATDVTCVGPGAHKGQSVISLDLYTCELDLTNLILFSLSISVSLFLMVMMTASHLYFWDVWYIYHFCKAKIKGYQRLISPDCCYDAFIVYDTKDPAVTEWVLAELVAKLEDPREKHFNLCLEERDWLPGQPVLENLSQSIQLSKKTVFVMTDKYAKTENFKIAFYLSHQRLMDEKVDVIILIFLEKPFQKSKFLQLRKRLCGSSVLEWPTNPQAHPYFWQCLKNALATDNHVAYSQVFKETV
Description: (§1) Example 389: HEK/293 TLR7 Cell Assay Into 384 CulturePlates (Corning 3765) was placed 5000 c/w of TLR7/NFKb HEK cells in 30 uL DMEM without Phenol red (gibco #31053-028) and 10% heat inactivated fetal bovine serum, 10% penicillin-streptomycin, and 2 mM L-Glutamine. The cells were incubated for 24 h at 37° C., 10% carbon dioxide and 90% relative humidity. 3 uL of controls, standards, and compounds were dispensed into wells, incubated for 30 min then 3 uL of R848 agonist (10 uM final concentration) was added in 20 mM Hepes. After incubation for 5 hours, they were allowed to stand at room temperature for 15 min. To this was added 10 uL of Steady-Glo substrate reagent and shake assay plate for 5 min at 1500 rpm. The assay plate was allowed to sit for 30 min at room temperature and then the plate was read on EnVision.

TLR8 = biological target: T2, TLR8 (Homo sapiens, UniProt Q9NR97); test: HEK/293 TLR8 Cell Assay; assay type: cell-based; settings: HEK cells, R848 agonist 30 uM final concentration, Steady-Glo readout; read-out: TLR8 potency
T2 construct: expressed in transfected cells; host or cells: HEK/293 reporter cells (NF-kB luciferase)
T2 sequence (Q9NR97 27-1041): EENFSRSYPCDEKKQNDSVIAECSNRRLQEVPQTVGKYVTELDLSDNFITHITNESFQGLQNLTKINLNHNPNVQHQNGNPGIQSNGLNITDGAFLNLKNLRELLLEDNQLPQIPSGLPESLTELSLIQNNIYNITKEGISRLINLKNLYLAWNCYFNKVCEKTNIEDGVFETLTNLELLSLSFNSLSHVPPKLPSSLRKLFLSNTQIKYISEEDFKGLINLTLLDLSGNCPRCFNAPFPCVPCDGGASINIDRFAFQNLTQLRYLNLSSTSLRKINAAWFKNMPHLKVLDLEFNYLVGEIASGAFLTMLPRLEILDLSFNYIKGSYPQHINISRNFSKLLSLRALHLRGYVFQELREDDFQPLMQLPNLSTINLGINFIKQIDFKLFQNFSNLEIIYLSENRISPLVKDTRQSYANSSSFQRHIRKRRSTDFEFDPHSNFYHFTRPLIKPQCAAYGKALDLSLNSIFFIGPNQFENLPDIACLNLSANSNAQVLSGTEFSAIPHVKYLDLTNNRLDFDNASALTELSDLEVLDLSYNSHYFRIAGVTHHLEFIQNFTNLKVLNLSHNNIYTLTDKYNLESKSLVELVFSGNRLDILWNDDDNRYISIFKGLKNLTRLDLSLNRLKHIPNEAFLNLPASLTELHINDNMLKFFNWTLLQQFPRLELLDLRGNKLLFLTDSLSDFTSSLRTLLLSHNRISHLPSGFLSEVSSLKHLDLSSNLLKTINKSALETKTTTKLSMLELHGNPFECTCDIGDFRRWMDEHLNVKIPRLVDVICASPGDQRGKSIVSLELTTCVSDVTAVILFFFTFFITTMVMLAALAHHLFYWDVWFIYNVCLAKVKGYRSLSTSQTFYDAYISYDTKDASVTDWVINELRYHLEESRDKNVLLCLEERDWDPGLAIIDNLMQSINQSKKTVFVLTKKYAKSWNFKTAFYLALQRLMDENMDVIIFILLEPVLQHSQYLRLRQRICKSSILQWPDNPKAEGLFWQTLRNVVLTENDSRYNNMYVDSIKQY
Description: as §1, with “Example 390:” for “Example 389:”, “HEK/293 TLR8” for “HEK/293 TLR7”, “serum, 1%” for “serum, 10%”, “agonist (30” for “agonist (10”

SMILES | IC50 (TLR7) | IC50 (TLR8)
Cc1c(F)cc(N2C[C@@H](C)C[C@@H](NC(=O)CC3C4CC3CN(C)C4)C2)c2cccnc12 (stereo partly drawn) [Example 112, N-[(3R,5S)-1-(7-Fluoro-8-methyl-quinolin-5-yl)-5-methyl-piperidin-3-yl]-2-(3-methyl-3-aza-bicyclo[3.1.1]hept-6-yl)-acetamide] | < 75 nM | < 75 nM
C[C@@H]1CN(c2ccc(C#N)c3nccnc23)C[C@H](C(=O)NC[C@H](O)CO)O1 [Example 234, (2R,6R)-4-(8-Cyano-quinoxalin-5-yl)-6-methyl-morpholine-2-carboxylic acid ((S)-2,3-dihydroxy-propyl)-amide] | 75 to 150 nM | 75 to 150 nM
C[C@@H]1CN(c2ccc(C#N)c3nccnc23)C[C@H](C(=O)NC[C@H](O)C(F)(F)F)O1 [Example 249, (2R,6R)-4-(8-Cyano-quinoxalin-5-yl)-6-methyl-morpholine-2-carboxylic acid ((S)-3,3,3-trifluoro-2-hydroxy-propyl)-amide] | < 75 nM | < 75 nM
C[C@@H]1CN(c2ccc(C#N)c3nccnc23)C[C@H](CSC[C@H](O)CO)O1 (single isomer, unassigned) [Example 229] | 75 to 150 nM | < 75 nM
C[C@@H]1CN(c2ccc(C#N)c3nccnc23)C[C@H](C(=O)NC[C@@H]2COCCN2)O1 (single isomer, unassigned) [Example 297] | < 75 nM | < 75 nM
C[C@@H]1CN(c2ccc(C#N)c3nccnc23)C[C@H](CN2CC[C@@H](O)C2)O1 [Example 221, 8-[(2S,6R)-2-((R)-3-Hydroxy-pyrrolidin-1-ylmethyl)-6-methyl-morpholin-4-yl]-quinoxaline-5-carbonitrile] | < 75 nM | > 150 nM
C[C@H]1C[C@@H](NCC(=O)N2CC(O)C2)CN(c2ccc(C(F)(F)F)c3ncccc23)C1 [Example 51, 1-(3-Hydroxy-azetidin-1-yl)-2-[(3R,5S)-5-methyl-1-(8-trifluoromethyl-quinolin-5-yl)-piperidin-3-ylamino]-ethanone] | < 75 nM | < 75 nM
COC[C@@H](O)CNC(=O)[C@H]1CN(c2ccc(C#N)c3nccnc23)C[C@@H](C)O1 (single isomer, unassigned) [Example 327] | < 75 nM | < 75 nM
CC(=O)NCCN[C@@H]1C[C@H](C)CN(c2ccc(C#N)c3nccnc23)C1 [Example 49, N-{2-[(3R,5S)-1-(8-Cyano-quinoxalin-5-yl)-5-methyl-piperidin-3-ylamino]-ethyl}-acetamide] | < 75 nM | < 75 nM
C[C@H]1C[C@@H](NC(=O)[C@H](N)CO)CN(c2ccc(C(F)(F)F)c3ncccc23)C1 [Example 167] | < 75 nM | < 75 nM
C[C@H]1C[C@@H](NC(=O)[C@@H](N)C(C)(C)O)CN(c2ccc(C(F)(F)F)c3ncccc23)C1 [Example 170, (S)-2-Amino-3-hydroxy-3-methyl-N-[(3R,5S)-5-methyl-1-(8-trifluoromethyl-quinolin-5-yl)-piperidin-3-yl]-butyramide] | 75 to 150 nM | < 75 nM
N#Cc1ccc(N2C[C@@H](C(=O)NC[C@@H](O)CO)O[C@@H](C(F)(F)F)C2)c2nccnc12 (single isomer, unassigned) [Example 283] | > 150 nM | > 150 nM
CC(=O)NCCN[C@@H]1C[C@H](C)CN(c2ccc(C(F)(F)F)c3nccnc23)C1 [Example 25, N-{2-[(3R,5S)-5-Methyl-1-(8-trifluoromethyl-quinoxalin-5-yl)-piperidin-3-ylamino]-ethyl}-acetamide formic acid] | < 75 nM | < 75 nM
C[C@@H]1CN(c2ccc(C(F)(F)F)c3ncccc23)C[C@H](CN2CCC(N3CCCC3)CC2)O1 [Example 328, 5-[(2R,6S)-2-Methyl-6-(4-pyrrolidin-1-yl-piperidin-1-ylmethyl)-morpholin-4-yl]-8-trifluoromethyl-quinoline] | < 75 nM | 75 to 150 nM
CC(C(=O)N[C@@H]1C[C@H](C)CN(c2ccc(C#N)c3nccnc23)C1)N1CCN(C)CC1 (single isomer, unassigned) [Example 90] | < 75 nM | < 75 nM
C[C@H]1C[C@@H](NCCN2CCOC2=O)CN(c2ccc(C(F)(F)F)c3nccnc23)C1 [Example 31, 3-{2-[(3R,5S)-5-Methyl-1-(8-trifluoromethyl-quinoxalin-5-yl)-piperidin-3-ylamino]-ethyl}-oxazolidin-2-one formic acid] | < 75 nM | < 75 nM
C[C@@H]1CN(c2ccc(C#N)c3nccnc23)C[C@H](C(=O)NC[C@@H]2CN(C)CCO2)O1 (single isomer, unassigned) [Example 325] | < 75 nM | < 75 nM
C[C@H]1C[C@@H](NC(=O)N[C@@H]2CCCNC2)CN(c2ccc(C(F)(F)F)c3ncccc23)C1 [Example 146, 3-[(3R,5S)-5-methyl-1-[8-(trifluoromethyl)quinolin-5-yl]piperidin-3-yl]-1-[(3R)-piperidin-3-yl]urea] | > 150 nM | < 75 nM
CNS(=O)(=O)CCNC(=O)[C@H]1CN(c2ccc(C#N)c3nccnc23)C[C@@H](C)O1 [Example 255, (2R,6R)-4-(8-cyanoquinoxalin-5-yl)-6-methyl-N-[2-(methylsulfamoyl)ethyl]morpholine-2-carboxamide] | < 75 nM | < 75 nM
C[C@@H]1CN(c2ccc(C#N)c3ncncc23)C[C@H](CNC(=O)[C@@]2(F)CCNC2)O1 (single isomer, unassigned) [Example 344] | < 75 nM | < 75 nM
